From patent US11872291B2, “Fibroblast activation protein (FAP)-targeted imaging and therapy” (priority 2016, dated 2024)

Tests used:
[1] = system: MDA-MB-231 subcutaneous tumor; assay: In vivo FAP targeted CAR T-cell therapy; design: species or system mice
Protocol: In vivo FAP targeted CAR T-cell therapy: MDA-MB-231 subcutaneous tumor was developed in female NSG mice by injecting 5 million cancer cells. Once the tumor volume reached ˜100 mms the mice were randomized into three different groups and treatment was initiated. Mice in all the groups were administered with 15 million CAR T-cells which has an scFv domain that binds specifically and tightly with fluorescein. 2 h after administration of the CAR T-cells mice in all the groups were given the first dose of the respective test agents. […] During therapy, mice in different groups were administered with the respective test agents intravenously on every other day. As a measure of gross toxicity mice were also weighed at every dosing.

[2] = system: FaDu, HT29, MDA-MB231 and KB cancer cells; assay: Confocal microscopy, uptake of JFL-L1-FM by cancer cells; assay type: cell-based; conditions: 100 nM, 1 h incubation at 37° C.
Protocol: Confocal Microscopy. FaDu, HT29, MDA-MB231 and KB cancer cells (30,000) were plated on 4 well confocal plate. The cells were incubated with […] JFL-L1-FM and incubated for 1 h. The unbound fluorescence was removed by washing the cells three times with the medium. The cell bound fluorescence was observed by using Olympus confocal microscopy.
In Vitro Binding Affinity and Confocal Imaging. The cancer cells FaDU, HT29, MDA-MB231 and KB were investigated for the expression of FAP. For this purpose, the cancer cells were seeded on a confocal well plate and incubated with 100 nM of the FAP targeted FM conjugate (JFL-L1-FM) After 1 h incubation at 37° C. the cells were washed to remove any excess of the […] under confocal microscopy to investigate any uptake of the dye, as shown in FIG. 11. […] This implied absence of FAP on these cancer cells.

[3] = system: FaDu, HT29, MDA-MB231 or KB tumor bearing mice; assay: In vivo fluorescence imaging and biodistribution in tumor xenografts; conditions: i.v., 2 h post injection; harvested organs
Protocol: In Vivo Fluorescence Imaging and Biodistribution. For the development of subcutaneous tumor xenografts, MDA-MB231, OVCAR-3 and HEC-1B 5×10^6 cells in 0.2 ml sterile PBS were injected subcutaneously in the right hind flank of the female nu/nu mice. Tumor imaging was initiated once the tumor volume reached between 200 mm^3 and 300 mm^3. Each tumor-bearing mouse was intravenously injected (via tail vein) with 10 nanomoles of fluorescence dye conjugate either in the presence or absence of a 100-fold excess of the unlabeled conjugate. Animals were euthanized two hours post injection using CO2 and the images were acquired using Caliper IVIS Luminal II. After performing the whole body image, the organs of interest were harvested and imaged to inspect the accumulation of the fluorescence in these organs. The image acquisition parameters were as follows: i) lamp level-high, ii) excitation-745 nm, iii) emission-ICG, iv) binning (M) 4M, (v) f-stop-4, (vi) FOV-12.5, (vii) acquisition time, 5 s.
In Vivo Fluorescence Imaging. To investigate the ability of JFL-L1-S0456 to accumulate in vivo mice were implanted with FaDu (n=5), HT29 (n=5), MDA-MB231(n=5) or KB (n=5) cells. These tumor bearing mice were intravenously injected with the NIR dye conjugate alone or co-injected with excess of the FAP targeting ligand JFL. […]

[4] = 10 nmoles i.v. every other day with 15 million anti-fluorescein CAR T-cells

Row | Structure (SMILES) | tumor growth rate after 1 week of treatment [1, 4] | tumor volume at the beginning of the study [1, 4] | tumor growth rate, competition group ([1]; 10 nmoles plus 100-fold excess of JFL, with CAR T-cells) | weight loss (gross toxicity) ([1]; all arms of the study) | uptake of dye conjugate observed under confocal microscopy [2] | uptake of the dye conjugate in the liver and kidney [3]
1 | C[C@@H](NC(=O)c1ccnc(CNC(=O)CCC(=O)NC(CSC2CC(=O)N(c3ccc(-c4c5ccc(=O)cc-5oc5cc(O)ccc45)c(C(=O)O)c3)C2=O)C(=O)O)c1)C(=O)N1CC(F)(F)C[C@H]1C#N (stereo partly drawn) [JFL-L1-FM] | slight separation in the tumor growth rate was observed | did not display any reduction in tumor volume | did not show any difference in the tumor growth rate | No weight loss was observed | no uptake of dye conjugate was observed | –
2 | C[C@@H](NC(=O)c1ccnc(CNC(=O)CCC(=O)N[C@@H](CSC2CC(=O)N(CCNC(=O)CCc3ccc(OC4=C(/C=C/C5=[N+](CCCCS(=O)(=O)O)c6ccc(S(=O)(=O)[O-])cc6C5(C)C)CCC/C4=C\C=C4\N(CCCCS(=O)(=O)O)c5ccc(S(=O)(=O)O)cc5C4(C)C)cc3)C2=O)C(=O)O)c1)C(=O)N1CC(F)(F)C[C@H]1C#N (stereo partly drawn) [JFL-L1-S0456] | – | – | – | – | – | minimal or no uptake
